Our source for the IC50 values is patent publication US8017612B2, “Piperazine compound and use thereof as a HCV polymerase inhibitor” (priority 2006, dated 2011).

Counter-ions that a name gives are not always drawn.

For orientation: IC50 means the point on the concentration scale where inhibition reaches its midpoint. Lower therefore signals greater potency.

For test [1], the target named is T1, HCV polymerase (NS5B) type 1a (Hepatitis C virus genotype 1a, UniProt P26664).
T1 construct: made in house; host or cells: Escherichia coli (by the 'similar method' of the 1b enzyme)
Nature of the test: Assay of enzyme (HCV polymerase) inhibitory activity, type 1a enzyme. Particulars: HCV polymerase inhibitory activity (IC50), 1a, type 1a enzyme 1.5 μg/ml, 25° C., 60 min. Type of test: biochemical, HCV type 1a (cloned from the blood of patients). The gist of the method:
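Reactions ran 60 min at 25° C in 20 mM Tris-HCl pH 7.5, 5 mM MgCl2, 50 mM NaCl, holding genotype 1a NS5B (1.5 μg/ml, Δ47 C-terminus, 6His), substrate RNA 5 μg/ml, UTP 2 μM with tritiated UTP and other NTPs 50 μM. IC50 derived from incorporated radiolabel in filter-trapped RNA relative to uninhibited reaction.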

Test [2] has as its target T2, HCV polymerase (NS5B) type 1b (Hepatitis C virus genotype 1b, UniProt P26663).
T2 construct: a region encoding NS5B (J Virol 1991 March, 65(3), 1105-13, 544 amino acids after deletion of 47 amino acids on the C-terminal); 6xHis (C); made in house; host or cells: Escherichia coli
Put plainly: Assay of enzyme (HCV polymerase) inhibitory activity, type 1b enzyme. Format: biochemical, HCV BK strain (type 1b). The following applies: HCV polymerase inhibitory activity (IC50), 1b, type 1b enzyme 0.5 μg/ml, 25° C., 60 min. A digest of the protocol: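 IC50 derived from [3H]UTP incorporation into TCA-insoluble RNA, compared with and without test compound. Reaction (25 °C, 60 min, Tris pH 7.5, 5 mM MgCl2): E. coli-expressed 1b NS5B Δ47 with His tag at 0.5 μg/ml, 5 μg/ml run-off substrate RNA, ATP/GTP/CTP 50 μM, UTP 2 μM.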

With `CCCc1ccc(CNC(=O)[C@H]2CN(c3nc(C)c(C(=O)O)s3)CCN2S(=O)(=O)c2ccc(OC(F)(F)F)cc2)cc1` [Example 378, 4-methyl-2-[(R)-3-(4-propyl-benzylcarbamoyl)-4-(4-trifluoromethoxy-benzenesulfonyl)-piperazin-1-yl]-thiazole-5-carboxylic acid], the IC50 in test [1] and in test [2] was under 100 nM in each case.
Regarding `Cc1nc(N2CCN(S(=O)(=O)c3ccc(OC(F)(F)F)cc3)[C@@H](C(=O)NCc3ccc(N(C)C)cc3)C2)sc1C(=O)O` [Example 379, 2-[(R)-3-(4-dimethylamino-benzylcarbamoyl)-4-(4-trifluoromethoxy-benzenesulfonyl)-piperazin-1-yl]-4-methyl-thiazole-5-carboxylic acid hydrochloride], the IC50 in test [1] and in test [2] was under 100 nM throughout.
Turning to `CCCc1ccc(S(=O)(=O)N2CCN(c3nc(C)c(C(=O)O)s3)C[C@@H]2C(=O)NCc2ccc(C(C)C)cc2)s1` [Example 380, 2-[(R)-3-(4-isopropyl-benzylcarbamoyl)-4-(5-propyl-thiophene-2-sulfonyl)-piperazin-1-yl]-4-methyl-thiazole-5-carboxylic acid], the IC50 in test [1] and in test [2] was under 100 nM throughout.
With `Cc1nc(N2CCN(S(=O)(=O)c3ccc4c(c3)CCCCC4)[C@@H](C(=O)NCc3ccc(C(C)C)cc3)C2)sc1C(=O)O` [Example 381, 2-[(R)-3-(4-isopropyl-benzylcarbamoyl)-4-(6,7,8,9-tetrahydro-5H-benzocycloheptene-2-sulfonyl)-piperazin-1-yl]-4-methyl-thiazole-5-carboxylic acid], the IC50 in test [1] and in test [2] was under 100 nM throughout.
Consider `CC(C)c1ccc(CNC(=O)[C@H]2CN(c3nc(CCC(=O)O)cs3)CCN2S(=O)(=O)c2ccc(OC(F)(F)F)cc2)cc1` [Example 382, 3-{2-[(R)-3-(4-isopropyl-benzylcarbamoyl)-4-(4-trifluoromethoxy-benzenesulfonyl)-piperazin-1-yl]-thiazol-4-yl}-propionic acid], for which the half-inhibitory concentration (IC50) in test [1] and in test [2] was 100 to 1000 nM throughout.
On to `Cc1nc(N2CCN(S(=O)(=O)c3ccc(OC(F)(F)F)cc3)[C@@H](C(=O)NCc3ccc(C4CC4)cc3)C2)sc1C(=O)O` [Example 383, 2-[(R)-3-(4-cyclopropyl-benzylcarbamoyl)-4-(4-trifluoromethoxy-benzenesulfonyl)-piperazin-1-yl]-4-methyl-thiazole-5-carboxylic acid], for which the IC50 in test [1] and in test [2] was under 100 nM each time.
With `CC(C)c1ccc(CNC(=O)[C@H]2CN(C(=O)CNCC(=O)O)CCN2S(=O)(=O)c2ccc(C(F)(F)F)cc2)cc1` [Example 384, {2-[(R)-3-(4-isopropyl-benzylcarbamoyl)-4-(4-trifluoromethyl-benzenesulfonyl)-piperazin-1-yl]-2-oxo-ethylamino}-acetic acid hydrochloride], the IC50 in test [1] and in test [2] was 100 to 1000 nM throughout.
With `CC(C)c1ccc(CNC(=O)[C@H]2CN(c3cnc(C(=O)O)cn3)CCN2S(=O)(=O)c2ccc(OC(F)(F)F)cc2)cc1` [Example 385, (R)-3-(4-isopropyl-benzylcarbamoyl)-4-(4-trifluoromethoxy-benzenesulfonyl)-3,4,5,6-tetrahydro-2H-[1,2′]bipyrazinyl-5′-carboxylic acid], the IC50 in test [1] and in test [2] was under 100 nM throughout.
In the case of `O=C(O)c1cnc(N2CCN(S(=O)(=O)c3ccc(OC(F)(F)F)cc3)[C@@H](C(=O)NCc3ccc(OC(F)(F)F)cc3)C2)cn1` [Example 386, (R)-4-(4-trifluoromethoxy-benzenesulfonyl)-3-(4-trifluoromethoxy-benzylcarbamoyl)-3,4,5,6-tetrahydro-2H-[1,2′]bipyrazinyl-5′-carboxylic acid], the IC50 in test [1] and in test [2] was under 100 nM each time.
As for `Cc1nc(N2CCN(S(=O)(=O)c3ccc(OC(F)(F)F)cc3)[C@@H](C(=O)NCc3ccc(N(C)C)nc3)C2)sc1C(=O)O` [Example 387, 2-[(R)-3-[(6-dimethylamino-pyridin-3-ylmethyl)-carbamoyl]-4-(4-trifluoromethoxy-benzenesulfonyl)-piperazin-1-yl]-4-methyl-thiazole-5-carboxylic acid], the concentration for half-maximal inhibition (IC50) in test [1] and in test [2] was under 100 nM throughout.
Turning to `CCCc1ccc(CNC(=O)[C@H]2CN(c3nc(C)c(C(=O)O)s3)CCN2S(=O)(=O)c2ccc(OC(F)(F)F)cc2)cn1` [Example 388, 4-methyl-2-[(R)-3-[(6-propyl-pyridin-3-ylmethyl)-carbamoyl]-4-(4-trifluoromethoxy-benzenesulfonyl)-piperazin-1-yl]-thiazole-5-carboxylic acid], the IC50 in test [1] is 100 to 1000 nM; in test [2] it was under 100 nM.
`Cc1nc(N2CCN(S(=O)(=O)c3ccc(OC(F)(F)F)cc3)[C@@H](C(=O)NCc3ccc(N4CCC4)nc3)C2)sc1C(=O)O` [Example 389, 2-[(R)-3-[(6-azetidin-1-yl-pyridin-3-ylmethyl)-carbamoyl]-4-(4-trifluoromethoxy-benzenesulfonyl)-piperazin-1-yl]-4-methyl-thiazole-5-carboxylic acid]: the 50% inhibitory concentration (IC50) in test [1] was 100 to 1000 nM; in test [2], under 100 nM.
Take `Cc1nc(N2CCN(S(=O)(=O)c3ccc(OC(F)(F)F)cc3)[C@@H](C(=O)NCc3ccc(N4CCCC4)nc3)C2)sc1C(=O)O` [Example 390, 4-methyl-2-[(R)-3-[(6-pyrrolidin-1-yl-pyridin-3-ylmethyl)-carbamoyl]-4-(4-trifluoromethoxy-benzenesulfonyl)-piperazin-1-yl]-thiazole-5-carboxylic acid]: the results for the IC50 in test [1] and in test [2] were 100 to 1000 nM and under 100 nM, respectively.
In the same order, the values of `CC(C)c1ccc(CNC(=O)[C@H]2CN(C(=O)CNCCC(=O)O)CCN2S(=O)(=O)c2ccc(C(F)(F)F)cc2)cc1` [Example 391, 3-{2-[(R)-3-(4-isopropyl-benzylcarbamoyl)-4-(4-trifluoromethyl-benzenesulfonyl)-piperazin-1-yl]-2-oxo-ethylamino}-propionic acid hydrochloride] are 100 to 1000 nM and 100 to 1000 nM.
The like results for `COc1ccc(CCNC(=O)[C@H]2CN(C(C)=O)CCN2S(=O)(=O)c2ccc(C(C)C)cc2)cc1` [Example 392, (R)-4-acetyl-1-(4-isopropyl-benzenesulfonyl)-piperazine-2-carboxylic acid [2-(4-methoxy-phenyl)-ethyl]-amide] were, in that order, over 1000 nM and over 1000 nM.
For `CC(=O)N1CCN(S(=O)(=O)c2ccc(C(C)C)cc2)[C@@H](C(=O)NCCc2ccc(C(=O)O)cc2)C1` [Example 393, 4-(2-{[(R)-4-acetyl-1-(4-isopropyl-benzenesulfonyl)-piperazine-2-carbonyl]-amino}-ethyl)-benzoic acid], the IC50 in test [1] and in test [2] was over 1000 nM in each case.
For `CCCc1ccc(S(=O)(=O)N2CCN(c3nc(COC)c(C(=O)O)s3)C[C@@H]2C(=O)NCc2ccc(C(C)C)cc2)cc1` [Example 394, 2-[(R)-3-(4-isopropyl-benzylcarbamoyl)-4-(4-propyl-benzenesulfonyl)-piperazin-1-yl]-4-methoxymethyl-thiazole-5-carboxylic acid], the 50% inhibitory concentration (IC50) in test [1] and in test [2] was under 100 nM in each case.
Turning to `CC(=O)N1CCN(S(=O)(=O)c2ccc(C(C)C)cc2)[C@@H](C(=O)NCCc2ccncc2)C1` [Example 395, (R)-4-acetyl-1-(4-isopropyl-benzenesulfonyl)-piperazine-2-carboxylic acid (2-pyridin-4-yl-ethyl)-amide], the IC50 in test [1] and in test [2] was over 1000 nM throughout.
With `CC(=O)N1CCN(S(=O)(=O)c2ccc(C(C)C)cc2)[C@@H](C(=O)NCCc2ccccn2)C1` [Example 396, (R)-4-acetyl-1-(4-isopropyl-benzenesulfonyl)-piperazine-2-carboxylic acid (2-pyridin-2-yl-ethyl)-amide], the IC50 in test [1] and in test [2] was over 1000 nM each time.
With `CC(=O)N1CCN(S(=O)(=O)c2ccc(C(C)C)cc2)[C@@H](C(=O)NCCc2cccnc2)C1` [Example 397, (R)-4-acetyl-1-(4-isopropyl-benzenesulfonyl)-piperazine-2-carboxylic acid (2-pyridin-3-yl-ethyl)-amide], the half-inhibitory concentration (IC50) in test [1] and in test [2] was over 1000 nM in each case.
`Cc1nc(N2CCN(S(=O)(=O)c3ccc(OC(F)(F)F)cc3)[C@@H](C(=O)NCc3ccc(N4CCC4)cc3)C2)sc1C(=O)O` [Example 398, 2-[(R)-3-(4-azetidin-1-yl-benzylcarbamoyl)-4-(4-trifluoromethoxy-benzenesulfonyl)-piperazin-1-yl]-4-methyl-thiazole-5-carboxylic acid]: the IC50 is 100 to 1000 nM in test [1] and under 100 nM in test [2].
The like results for `CN(C)c1ccc(CNC(=O)[C@H]2CN(c3cnc(C(=O)O)cn3)CCN2S(=O)(=O)c2ccc(OC(F)(F)F)cc2)cc1` [Example 399, (R)-3-(4-dimethylamino-benzylcarbamoyl)-4-(4-trifluoromethoxy-benzenesulfonyl)-3,4,5,6-tetrahydro-2H-[1,2′]bipyrazinyl-5′-carboxylic acid] were, in that order, under 100 nM and under 100 nM.
